IC50 data for 85 compounds are collected here from PubChem BioAssay AID2305 (GlaxoSmithKline (GSK), 2010).

Molecules are shown by their SMILES.

For this assay, the system named is P. falciparum 3D7 growth, pLDH absorbance. Description: blood-stage malaria parasite growth potency – strain 3D7, dose response (AID 2305).
As for `COc1ccc(OC)c(CNCC(O)c2cc(C(F)(F)F)cc(C(F)(F)F)c2)c1` (stereo not given), the half-inhibitory concentration (IC50) (as a rule, the concentration that inhibits the measured activity by half) stood at 440 nM.

The compound `CCCCCC1c2[nH]c3ccccc3c2CCN1C(=O)OCc1ccccc1` (stereo not given) registered an IC50 of 390 nM.

On to `Cc1ccc2nc(-c3cc(-c4ccc(OCc5ccccc5)cc4)cnc3N)[nH]c2c1`, for which the IC50 amounted to 1680 nM.

Compound `N#CC(NC(=O)C=Cc1ccccc1)c1ccccc1` (stereo not given) registered an IC50 of 180 nM.

`CC(C)C[C@H](Nc1ccnc(NCC2CCCCC2)n1)C(=O)Nc1ccccc1` returned an IC50 of 1430 nM.

As for `Fc1cccc(COc2ccc(Nc3ncnc4sc(C#C[C@H]5CC[C@H](CN6CCOCC6)N5)cc34)cc2Cl)c1`, the IC50 was found to be 920 nM.

Turning to `CCOc1cc(CC)ccc1C1CCN(CCCCNC(=O)c2ccc(NC(=O)c3ccc(C#N)cc3)cc2)CC1`, the IC50 worked out at 500 nM.

Regarding `CC1(C)N=C(N)N=C(N)N1OCc1cc2ccccc2cc1CON1C(N)=NC(N)=NC1(C)C`, the IC50 was found to be 130 nM.

`Nc1nc(N)c2c(ccc3c2ccn3CCCCO)n1` showed an IC50 of 120 nM.

As to `CCCCOP(=O)(COc1ccc(CCN(CC(O)COc2cccc3[nH]c4ccccc4c23)CC(O)COc2cccc3[nH]c4ccccc4c23)cc1)C1CCCCC1` (stereo not given), the IC50 was determined as 940 nM.

Compound `O=C(Nc1ccc(C(F)(F)F)cc1)N[C@H]1CCN(CCCCCNC(=O)[C@@H]2C[C@H]2c2ccc(Cl)c(Cl)c2)C1` returned an IC50 of 1100 nM.

The compound `CN(C)Cc1c(O)ccc2[nH]c(-c3ccc(F)cc3F)nc12` gave an IC50 of 1300 nM.

For the compound `O=C(Nc1ccc([N+](=O)[O-])cc1)Nc1cc(C(F)(F)F)ccc1F`, the IC50 amounted to 1070 nM.

Compound `CC(C)CNCc1ccc(-c2ccc(CN(C(=O)Nc3ccccc3)C3CCN(Cc4ccccc4)CC3)cc2)cc1` had an IC50 of 680 nM.

In turn, `CC(C)c1ccc(CN2CCC(CNC(=O)c3cc(-c4ccccc4F)cs3)C2)cc1` (stereo not given) gave an IC50 of 990 nM.

In turn, `Cc1cccc(-c2nn(-c3ccccc3)cc2C(=O)Nc2nnc(C)o2)c1` yielded an IC50 of 1160 nM.

Take `COc1ccc(NC(=O)c2ccc(Br)c(C)c2)cc1N1CCN(Cc2ccccc2)CC1`: the half-inhibitory concentration (IC50) was 920 nM.

`Cc1ccc(Nc2nc(C)cc(NC3CC3)n2)cc1` showed an IC50 of 1220 nM.

In turn, `N#Cc1ccc(-c2ccc(C(=O)NCCCCN3CCC(n4cnc5ccccc54)CC3)cc2)cc1` registered an IC50 of 910 nM.

In turn, `Cc1nc(SCC(=O)N2CCCC2=O)c2c(C)c(C)sc2n1` displayed an IC50 of 170 nM.

`Cc1cccc(NC(=O)N(Cc2cc3cc(C)cc(C)c3[nH]c2=O)C2CC2)c1` returned an IC50 of 340 nM.

Take `OC(CNCc1ccccc1OCc1ccccc1)c1cc(Br)cs1` (stereo not given): the IC50 was 720 nM.

`CCOc1cc2ncnc(Nc3ccc(OCc4ccccc4OC)c(OC)c3)c2cc1OCC`: the IC50 worked out at 880 nM.

Take `Cc1ccccc1N1CCN(c2ccc(C(=O)NC3CC3)cn2)CC1`: the IC50 was found to be 460 nM.

In turn, `O=C(Nc1ccc(-c2ccccc2)cc1)Nc1cccc(Cn2ncc(N3CCCNCC3)c(Cl)c2=O)c1` came in with an IC50 of 220 nM.

Consider `CCOc1cc(Cc2cnc(N)nc2N)cc(OCC)c1O`, for which the IC50 was 1170 nM.

As to `CCNc1cc(C(=O)N[C@@H](Cc2ccccc2)[C@H](O)CNCCc2cc(OC)cc(OC)c2)cc(N2CCCCS2(=O)=O)c1`, the IC50 is 1140 nM.

Compound `O=C(NCCCCN1CCC(c2ccc3c(c2OCCO)CCCC3)CC1)c1ccc2oc(-c3ccc(C(F)(F)F)cc3)cc2c1` registered an IC50 of 340 nM.

`CC(C)(C)c1ccc(C(=O)Nc2ccc(NC(=O)c3ccc([N+](=O)[O-])o3)cc2)cc1` showed an IC50 of 840 nM.

Compound `Cc1ccc(Cl)cc1N1CCN(CCCNC(=O)C2CCN(c3nc4ccccc4[nH]3)CC2)CC1` gave an IC50 of 900 nM.

Regarding `CCNS(=O)(=O)c1ccc(Oc2ccc([N+](=O)[O-])cc2)cc1`, the IC50 amounted to 170 nM.

Turning to `N#Cc1cccc(Nc2cc(C(F)(F)F)nc(Nc3ccccc3)n2)c1`, the IC50 was determined as 1440 nM.

As to `Cc1cccc2[nH]c(-c3cccc(-c4cccc(CNCc5ccc(S(C)(=O)=O)cc5)c4)c3)nc12`, the IC50 was 300 nM.

Compound `CCOCCCNc1ncc(-c2ccsc2)c(-c2nc(C)cs2)n1` yielded an IC50 of 270 nM.

For `CCOc1cc(C(=O)NC2CC(C)(C)NC(C)(C)C2)ccc1-c1cc2cc(Cl)c(Cl)cc2[nH]1`, the IC50 stood at 770 nM.

As for `CC(C)(C)c1ccc(-c2nc3c(ccc4nc(N)nc(N)c43)[nH]2)cc1`, the IC50 was 160 nM.

In the case of `Cc1ccc(Nc2cc(C)nn2-c2nc(C)cc(=O)[nH]2)cc1`, the IC50 was determined as 860 nM.

Turning to `O=C(O)CCCN1CCCC(=C(c2ccccc2)c2ccccc2)C1`, the IC50 was found to be 1190 nM.

`CC1(C)N=C(N)N=C(N)N1OCc1cc(Cl)c(Cl)cc1CON1C(N)=NC(N)=NC1(C)C` came in with an IC50 of 10 nM.

Turning to `O=C1CCCN1CCCNCc1cccc(-c2ccc(-c3nc4ccc(C(F)(F)F)cc4[nH]3)s2)c1`, the IC50 is 450 nM.

As for `COc1cccc(CN2CCCN(Cc3cccc(NC(=O)c4ccc(Cl)c(Cl)c4)c3)CC2)c1`, the IC50 came out at 1460 nM.

In turn, `CN(C)CCC1CCN(CCS(=O)(=O)c2cccc(Nc3ccc(-c4ccsc4)cn3)c2)CC1` had an IC50 of 940 nM.

Regarding `N#Cc1ccc(CN2CCCN(Cc3cccc(NC(=O)c4ccc(-c5ccccc5)cc4)c3)CC2)cc1`, the IC50 is 1020 nM.

With `Fc1ccc(N(c2nc(-c3cc(F)cc(C(F)(F)F)c3)cs2)C2CCNCC2)cc1`, the IC50 came out at 960 nM.

The compound `NC1=NC(c2ccccc2)(c2ccccn2)C(=O)N1CCCc1ccccc1` (stereo not given) gave an IC50 of 1040 nM.

On to `Cc1cc(C(=O)OCC(=O)Nc2c(C)n(C)n(-c3ccccc3)c2=O)c(C)n1-c1ccc(F)cc1`, for which the IC50 came out at 50 nM.

In turn, `O=C(Nc1ccc(F)c(C(F)(F)F)c1)N[C@H]1CCN(CCCCCNC(=O)[C@@H]2C[C@H]2c2ccc(Cl)c(Cl)c2)C1` registered a half-inhibitory concentration (IC50) of 160 nM.

`CN(C)CCN(Cc1ccc(-c2ccc(CNCCc3ccccc3)cc2)nc1)C(=O)CCC1CCCC1` gave an IC50 of 800 nM.

`COc1cccc(CNC(=O)[C@H]2CNCCN2C(=O)CCCc2ccccc2)c1` displayed an IC50 of 790 nM.

Compound `O=C(Nc1ccc(-c2ccc(-c3nc4ccc(C(F)(F)F)cc4[nH]3)s2)cc1)c1cnc[nH]1` yielded an IC50 of 670 nM.

Take `CC(C)C[C@H]1C(=O)N[C@H](C2Cc3ccccc3C2)C(=O)N1[C@@H](C(=O)Nc1ccccc1OCc1ccccc1)c1ccc(F)cc1F`: the IC50 was 1020 nM.

For the compound `Cc1ccc(C(=O)NC2C(=O)NC2c2ccccc2)c(C)c1` (stereo not given), the IC50 came to 950 nM.

Consider `N#Cc1cccc(CN2CCCN(c3ccc(NC(=O)c4cccs4)cc3)CC2)c1`, for which the IC50 worked out at 810 nM.

As for `Cc1cc(F)ccc1N(c1nc(-c2cc(Cl)ccc2Cl)cs1)C1CCNC1` (stereo not given), the IC50 is 1010 nM.

Turning to `Nc1nccc(-c2ccc3c(/C=C/c4ccccc4)cnc(N)c3c2)n1`, the IC50 turned out to be 620 nM.

With `O=C(/C=C/c1ccc(Cl)c(Cl)c1)NC1CCN(Cc2ccc(O)cc2)CC1`, the IC50 is 690 nM.

Turning to `FC(F)(F)c1ccc2nc(-c3cccc(-c4ccc(CNCCN5CCNCC5)cc4)c3)[nH]c2c1`, the half-maximal inhibitory concentration (IC50) was 860 nM.

In the case of `Cc1ccc(NS(=O)(=O)c2ccc(C(C)N3CCC(N4CCCCC4)CC3)cc2)cc1C` (stereo not given), the IC50 came to 760 nM.

As to `COC(=O)c1ccc(NC(=O)Nc2cccc(CCNCc3ccccc3)c2)cc1`, the IC50 turned out to be 870 nM.

`O=C(NC1CCC(N2CCC(O)(c3ccc(F)cc3)CC2)CC1)c1cc2ccccc2[nH]1` (stereo not given) came in with an IC50 of 740 nM.

In turn, `CCN(CC)CCCOC(=O)c1ccc2c(c1)-c1ccc(C(=O)OCCCN(CC)CC)c3cccc-2c13` yielded an IC50 of 930 nM.

Take `CN1CCC(N(Cc2ccc(-c3ccc(C(F)(F)F)cc3)nc2)C(=O)Cn2c(CCc3cccc(F)c3F)cc(=O)c3ccccc32)CC1`: the IC50 turned out to be 1100 nM.

Compound `Cc1cc(N(C)C)nc(Nc2ccc(NC(=O)Nc3ccccc3)cc2)n1` displayed an IC50 of 130 nM.

Compound `Cc1csc(NC(=O)c2cn(-c3ccccc3)nc2-c2cccs2)n1` displayed an IC50 of 910 nM.

Take `O=C1Nc2cccc3c2C1(CCCCN1CC=C(c2c[nH]c4ncccc24)CC1)CCC3` (stereo not given): the IC50 is 400 nM.

`Cc1noc(-c2ccc3c(c2)CCN(CCC2CCC(NC(=O)/C=C/c4ccc(F)cc4)CC2)CC3)n1` (stereo not given) showed an IC50 of 1030 nM.

Regarding `COc1ccc(-c2cccc(CNC3CCN(CC4Cn5c(=O)ccc6ccc(F)c4c65)CC3)c2)cc1` (stereo not given), the IC50 amounted to 1090 nM.

`CC(C)[C@H]1CC[C@H](C)C[C@@H]1OC(=O)N[C@@H](Cc1ccc(O)cc1)C(=O)NC1CCN(Cc2ccc(OCCCN(C)C)cc2)C1` (stereo not given in full) gave an IC50 of 760 nM.

Compound `FC(F)(F)c1ccc2nc(-c3ccc(-c4ccc(CNCC5CCCO5)cc4)cc3)[nH]c2c1` (stereo not given) showed an IC50 of 410 nM.

`COc1ccc(-c2cnc3ccc(NC4CCC(O)CC4)nn23)cn1` (stereo not given): the IC50 came to 710 nM.

Compound `CC(=O)N(Cc1ccc(CC(C)NCCc2cccc(Cl)c2)cc1)Cc1ccc(CC(C)NCCc2cccc(Cl)c2)cc1` (stereo not given) returned an IC50 of 780 nM.

In turn, `CC(Cc1ccc(NC(=O)[C@H](C)NCCc2cccc(Cl)c2)cc1)NCCc1cccc(Cl)c1` (stereo not given in full) showed an IC50 of 660 nM.

`CCS(=O)(=O)c1ccc(OC)c(Nc2nccc(-c3c(-c4cccc(NC(=O)c5c(F)cccc5F)c4)nn4ncccc34)n2)c1` returned an IC50 of 1030 nM.

As for `O=C(NCc1cccc(F)c1)Nc1cccc(-c2cccc(-c3nc4ccccc4[nH]3)c2)c1`, the IC50 stood at 390 nM.

In the case of `Cc1ncsc1CCN1C(=O)CC2(C1=O)C(=O)N(Cc1ccccc1)c1ccc(Cl)cc12` (stereo not given), the IC50 is 980 nM.

Take `COc1ccccc1OCCN(CC(O)COc1cccc2[nH]c3ccccc3c12)CC(O)COc1cccc2[nH]c3ccccc3c12` (stereo not given): the IC50 is 640 nM.

As for `CC(C)(C)NC(=O)COC(=O)c1c2c(nc3ccccc13)C(=Cc1ccc3c(c1)OCO3)CCC2`, the IC50 is 740 nM.

Compound `COc1ccc(Nc2nc(NN=Cc3ccc(-c4ccc([N+](=O)[O-])cc4)o3)nc(Nc3ccccc3)n2)cc1` showed an IC50 of 760 nM.

Compound `Oc1ccc(C=NNC(=S)Nc2cccc3ccccc23)c(O)c1` registered an IC50 of 1040 nM.

As for `Fc1ccc2nc(-c3cccc(-c4ccc(CN5CCCCC5)cc4)c3)[nH]c2c1`, the IC50 came out at 160 nM.

For `COC(=O)c1cc(OC)c(OC)cc1NC(=O)NC12CC3CC(CC(C3)C1)C2`, the 50% inhibitory concentration (IC50) amounted to 880 nM.

In turn, `Cc1[nH]c(C)c(-c2ccc(Oc3cccc(Cl)c3)cc2)c(=O)c1Cl` showed an IC50 of 20 nM.

Turning to `Cc1ccc(NC(=O)N2CCCN(CCCCCNC(=O)/C=C/c3ccc(Cl)c(Cl)c3)CC2)cc1C`, the IC50 is 770 nM.

In the case of `Cc1cc(N[C@@H](CC(C)C)C(=O)Nc2ccccc2)nc(Nc2ccccc2)n1`, the IC50 was determined as 730 nM.

As for `Cc1ccccc1C1CCN(C2CCC(NC(=O)c3csc(-c4cccc(Cl)c4)n3)CC2)CC1` (stereo not given), the IC50 is 1150 nM.
